Experimental data reported in patent US6572877B2, “Worm food composition” (Legend Laboratories Corporation, priority 2001, dated 2003).

Test system: Lumbricus terrestris
Experiment: Feeding experiment with Lumbricus terrestris (Canadian night crawler), cartons of one dozen worms plus bedding
Type: in vivo
Conditions: Carton 1
Method: The first experiment was conducted with Lumbricus terrestris. Lumbricus terrestris typically measures from 90-300 mm by 6-10 mm having a dark anterior and a pale flattened posterior. These worms live in an anecic habit meaning that they build permanent, vertical burrows that extend typically 2.5 m into the soil. Such worms feed in decaying organic material and grow and breed very slowly compared to other worms. This worm must have the burrow to return to and simply won't perform well in a worm bin. In their natural habitat such worms can live up to six years.
In the experiment, five cartons containing one dozen worms plus bedding each were kept in the refrigerator at 36° F. to 40° F. prior to the beginning the experiment. After refrigeration the following compounds were added to the specified cartons. Carton 1 was treated with a stock solution of 5 ml xanthene acid yellow 73 from a stock solution of 0.5 g xanthene acid yellow 73 in 500 ml distilled water. Carton 2 was treated with 5 grams of a stock mixture having 40 grams corn meal and 1 gram xanthene acid yellow 73. This mixture was simply added to Carton 2 and was not agitated. Carton 3 was treated with 5 grams of the same stock mixture and shaken gently to evenly disperse the mixture in Container 3. Carton 4 was treated with 5 grams from a mixture of 40 grams corn meal and 2 grams xanthene acid yellow 73 and was not agitated. […]

Question: Which results are given for O=C([O-])c1ccccc1-c1c2ccc(=O)cc-2oc2cc([O-])ccc12.[Na+].[Na+] [xanthene acid yellow 73]?
Answer: color of the worm (5 ml of stock solution 0.5 g in 500 ml distilled water, after 7 days): no change in the color of the worm; condition of the worms (5 ml of stock solution, after six weeks): weak and dying from lack of nutrition
